This note sets out measurements from patent publication US20240254118A1, “PRMT5 INHIBITORS AND USES THEREOF” (Gilead Sciences, Inc., priority 2022, published 2024).

Test [1] relates to SDMA signal (PRMT5 inhibition) in HCT116 MTAP-deleted cells. Description: Symmetric di-methyl arginine image-based high content screen assay (SDMA assay), HCT116 MTAP-deleted. Format: cell-based. The settings on record: SDMA assay; for EC50: Homo sapiens, HCT-116, 72 h, 3 days of treatment, cell line not given, taken as HCT116 MTAP-deleted, read-out: EC50 (SDMA assay); for EC50 selectivity (SDMA assay): taken as HCT116 WT versus MTAP-deleted. The method in brief:
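Read-out: per-cell mean SDMA immunofluorescence (Alexa Fluor 488 secondary), cells segmented by DAPI on a high-content imager. Compound exposure in HCT116 MTAP-deleted cells lasted until fixation on Day 3; overnight 4° C primary anti-SDMA antibody staining.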

The subject of test [2] is HCT116 MTAP-deleted cells. Description: Cell viability assay (CellTiter-Glo, 7 days), HCT116 MTAP-deleted. The conditions noted are these: Homo sapiens, HCT-116, 168 h. For orientation: Cellular ATP, detected with luciferase, serves as a proxy for viable cell number.

With `CN(C(=O)C12CC(F)(C1)C2)N(Cc1ccc(C(F)(F)F)cn1)C(=O)c1ccc2nc(N)c3cnn(C)c3c2c1` [Example 102, 4-amino-N′-(3-fluorobicyclo[1.1.1]pentane-1-carbonyl)-N′,1-dimethyl-N-[[5-(trifluoromethyl)-2-pyridyl]methyl]pyrazolo[4,3-c]quinoline-8-carbohydrazide], in test [1], the EC50 lay within 1 to 5 nM and the “EC50 selectivity (SDMA assay)” value came to 252. For the same molecule, the CC50 in test [2] is under 100 nM.

As to `CC(=O)N1CC(C(=O)N(C)N(Cc2ccc(C(F)(F)F)cn2)C(=O)c2ccc3nc(N)c4cnn(C)c4c3c2)C1` [Example 103, N′-(1-acetylazetidine-3-carbonyl)-4-amino-N′,1-dimethyl-N-[[5-(trifluoromethyl)-2-pyridyl]methyl]pyrazolo[4,3-c]quinoline-8-carbohydrazide], in test [1], the EC50 is over 5 nM and the “EC50 selectivity (SDMA assay)” value is listed as under 500. For the same molecule, the CC50 in test [2] was over 1000 nM.

As to `CN(C(=O)C1CCC1)N(Cc1ccc(C(F)(F)F)nn1)C(=O)c1ccc2nc(N)c3cnn(C)c3c2c1` [Example 104, 4-amino-N′-(cyclobutanecarbonyl)-N′,1-dimethyl-N-((6-(trifluoromethyl)pyridazin-3-yl)methyl)-1H-pyrazolo[4,3-c]quinoline-8-carbohydrazide], in test [1], the EC50 lay within 1 to 5 nM and the “EC50 selectivity (SDMA assay)” value is on record as 173. In test [2], this molecule gave a CC50 of under 100 nM.

In the case of `CN(C(=O)c1cocn1)N(Cc1ccc(C(F)(F)F)cn1)C(=O)c1ccc2nc(N)c3cnn(C)c3c2c1` [Example 105, N′-(4-amino-1-methyl-1H-pyrazolo[4,3-c]quinoline-8-carbonyl)-N-methyl-N′-((5-(trifluoromethyl)pyridin-2-yl)methyl)oxazole-4-carbohydrazide], in test [1], the EC50 is under 1 nM and the “EC50 selectivity (SDMA assay)” value is 15. Besides, in test [2], the CC50 was under 100 nM.

In the case of `CN(C(=O)c1cscn1)N(Cc1ccc(C(F)(F)F)cn1)C(=O)c1ccc2nc(N)c3cnn(C)c3c2c1` [Example 106, N′-(4-amino-1-methyl-1H-pyrazolo[4,3-c]quinoline-8-carbonyl)-N-methyl-N′-((5-(trifluoromethyl)pyridin-2-yl)methyl)thiazole-4-carbohydrazide], in test [1], the EC50 was under 1 nM and the “EC50 selectivity (SDMA assay)” value is on record as 16. The molecule also registered a CC50 in test [2] of under 100 nM.

For the molecule `CC(=O)N(N(Cc1ccc(C(F)(F)F)cn1)C(=O)c1ccc2nc(N)c3cnn(C)c3c2c1)C12CC(C1)C2` [Example 107, N′-acetyl-4-amino-N′-(1-bicyclo[1.1.1]pentanyl)-1-methyl-N-[[5-(trifluoromethyl)-2-pyridyl]methyl]pyrazolo[4,3-c]quinoline-8-carbohydrazide], in test [1], the EC50 was under 1 nM and the “EC50 selectivity (SDMA assay)” value was found to be 163. The molecule also came in with a CC50 in test [2] of under 100 nM.

Regarding `CN(C(=O)C1CCC1)N(Cc1ccc(C(F)(F)F)cn1)C(=O)c1ccc2nc(N)c3cnn(C)c3c2c1` [Example 108, 4-amino-N′-(cyclobutanecarbonyl)-N′,1-dimethyl-N-[[5-(trifluoromethyl)-2-pyridyl]methyl]pyrazolo[4,3-c]quinoline-8-carbohydrazide], in test [1], the EC50 was under 1 nM and the “EC50 selectivity (SDMA assay)” value is on record as 70. The molecule further displayed a CC50 in test [2] of under 100 nM.

Consider `CN(C(=O)OCC(F)(F)F)N(Cc1ccc(C(F)(F)F)cn1)C(=O)c1ccc2nc(N)c3cnn(C)c3c2c1` [Example 109, 2,2,2-trifluoroethyl N-[(4-amino-1-methyl-pyrazolo[4,3-c]quinoline-8-carbonyl)-[[5-(trifluoromethyl)-2-pyridyl]methyl]amino]-N-methyl-carbamate], for which, in test [1], the EC50 is under 1 nM and the “EC50 selectivity (SDMA assay)” value came to 12. Besides, in test [2], the CC50 is under 100 nM.

For `CN(C(=O)OCC(F)F)N(Cc1ccc(C(F)(F)F)cn1)C(=O)c1ccc2nc(N)c3cnn(C)c3c2c1` [Example 110, 2,2-difluoroethyl N-[(4-amino-1-methyl-pyrazolo[4,3-c]quinoline-8-carbonyl)-[[5-(trifluoromethyl)-2-pyridyl]methyl]amino]-N-methyl-carbamate], in test [1], the EC50 is under 1 nM and the “EC50 selectivity (SDMA assay)” value worked out at 11. Also, the CC50 in test [2] was under 100 nM.

For `CN(C(=O)C1CC1)N(Cc1ccc(C(F)(F)F)cn1)C(=O)c1ccc2nc(N)c3cnn(C)c3c2c1` [Example 111, 4-amino-N′-(cyclopropanecarbonyl)-N′,1-dimethyl-N-[[5-(trifluoromethyl)-2-pyridyl]methyl]pyrazolo[4,3-c]quinoline-8-carbohydrazide], in test [1], the EC50 was under 1 nM and the “EC50 selectivity (SDMA assay)” value amounted to 129. The molecule further came in with a CC50 in test [2] of under 100 nM.

For `CN(C(=O)OC1CCC1)N(Cc1ccc(C(F)(F)F)cn1)C(=O)c1ccc2nc(N)c3cnn(C)c3c2c1` [Example 112, cyclobutyl N-[(4-amino-1-methyl-pyrazolo[4,3-c]quinoline-8-carbonyl)-[[5-(trifluoromethyl)-2-pyridyl]methyl]amino]-N-methyl-carbamate], in test [1], the EC50 was under 1 nM and the “EC50 selectivity (SDMA assay)” value was 46. Besides, in test [2], the CC50 is under 100 nM.

For the molecule `CN(C(=O)c1ccncc1)N(Cc1ccc(C(F)(F)F)cn1)C(=O)c1ccc2nc(N)c3cnn(C)c3c2c1` [Example 113, 4-amino-N′,1-dimethyl-N′-(pyridine-4-carbonyl)-N-[[5-(trifluoromethyl)-2-pyridyl]methyl]pyrazolo[4,3-c]quinoline-8-carbohydrazide], in test [1], the EC50 fell in the range of 1 to 5 nM and the “EC50 selectivity (SDMA assay)” value was determined as 404. The CC50 in test [2] lay in the range of 100 to 1000 nM.

Turning to `CC(=O)N(c1ncccn1)N(Cc1ccc(C(F)(F)F)cn1)C(=O)c1ccc2nc(N)c3cnn(C)c3c2c1` [Example 114, N′-acetyl-4-amino-1-methyl-N′-pyrimidin-2-yl-N-[[5-(trifluoromethyl)-2-pyridyl]methyl]pyrazolo[4,3-c]quinoline-8-carbohydrazide], in test [1], the EC50 is under 1 nM and the “EC50 selectivity (SDMA assay)” value was determined as 32. In addition, in test [2], the CC50 was under 100 nM.

As for `CC(=O)N(CC(F)F)N(Cc1ccc(C(F)(F)F)cn1)C(=O)c1ccc2nc(N)c3cnn(C)c3c2c1` [Example 115, N′-acetyl-4-amino-N′-(2,2-difluoroethyl)-1-methyl-N-[[5-(trifluoromethyl)-2-pyridyl]methyl]pyrazolo[4,3-c]quinoline-8-carbohydrazide], in test [1], the EC50 is 1 to 5 nM and the “EC50 selectivity (SDMA assay)” value was 382. The molecule further had a cytotoxic concentration (CC50) in test [2] of 100 to 1000 nM.

`CC(=O)N(CC(F)(F)F)N(Cc1ccc(C(F)(F)F)cn1)C(=O)c1ccc2nc(N)c3cnn(C)c3c2c1` [Example 116, N′-acetyl-4-amino-1-methyl-N′-(2,2,2-trifluoroethyl)-N-[[5-(trifluoromethyl)-2-pyridyl]methyl]pyrazolo[4,3-c]quinoline-8-carbohydrazide]: in test [1], the EC50 is 1 to 5 nM and the “EC50 selectivity (SDMA assay)” value was determined as 189. Moreover, the CC50 in test [2] was in the range of 100 to 1000 nM.

With `CN(C(=O)C1(F)CC1)N(Cc1ccc(C(F)(F)F)cn1)C(=O)c1ccc2nc(N)c3cnn(C)c3c2c1` [Example 117, 4-amino-N′-(1-fluorocyclopropanecarbonyl)-N′,1-dimethyl-N-[[5-(trifluoromethyl)-2-pyridyl]methyl]pyrazolo[4,3-c]quinoline-8-carbohydrazide], in test [1], the EC50 was under 1 nM and the “EC50 selectivity (SDMA assay)” value was 34. In test [2], the CC50 was under 100 nM.

For `CN(C(=O)c1ccccn1)N(Cc1ccc(C(F)(F)F)cn1)C(=O)c1ccc2nc(N)c3cnn(C)c3c2c1` [Example 118, 4-amino-N′,1-dimethyl-N′-picolinoyl-N-((5-(trifluoromethyl)pyridin-2-yl)methyl)-1H-pyrazolo[4,3-c]quinoline-8-carbohydrazide], in test [1], the EC50 is under 1 nM and the “EC50 selectivity (SDMA assay)” value worked out at 96. Moreover, in test [2], the CC50 is under 100 nM.

In the case of `CN(C(=O)C(C)(C)C)N(Cc1ccc(C(F)(F)F)cn1)C(=O)c1ccc2nc(N)c3cnn(C)c3c2c1` [Example 119, 4-amino-N′,1-dimethyl-N′-pivaloyl-N-((5-(trifluoromethyl)pyridin-2-yl)methyl)-1H-pyrazolo[4,3-c]quinoline-8-carbohydrazide], in test [1], the EC50 is under 1 nM and the “EC50 selectivity (SDMA assay)” value was found to be 156. The CC50 in test [2] is under 100 nM.

Turning to `CC(C)C(=O)N(C)N(Cc1ccc(C(F)(F)F)cn1)C(=O)c1ccc2nc(N)c3cnn(C)c3c2c1` [Example 120, 4-amino-N′-isobutyryl-N′,1-dimethyl-N-((5-(trifluoromethyl)pyridin-2-yl)methyl)-1H-pyrazolo[4,3-c]quinoline-8-carbohydrazide], in test [1], the EC50 was under 1 nM and the “EC50 selectivity (SDMA assay)” value is reported as 542. The molecule further yielded a CC50 in test [2] of under 100 nM.

As for `CN(C(=O)C(C)(C)F)N(Cc1ccc(C(F)(F)F)cn1)C(=O)c1ccc2nc(N)c3cnn(C)c3c2c1` [Example 121, 4-amino-N′-(2-fluoro-2-methylpropanoyl)-N′,1-dimethyl-N-((5-(trifluoromethyl)pyridin-2-yl)methyl)-1H-pyrazolo[4,3-c]quinoline-8-carbohydrazide], in test [1], the EC50 was under 1 nM and the “EC50 selectivity (SDMA assay)” value is listed as 106. In addition, the CC50 in test [2] was under 100 nM.

As to `CN(C(=O)C1CC1)N(Cc1ccc(F)cc1F)C(=O)c1ccc2nc(N)c3cnn(C)c3c2c1` [Example 122, 4-amino-N′-(cyclopropanecarbonyl)-N-(2,4-difluorobenzyl)-N′,1-dimethyl-1H-pyrazolo[4,3-c]quinoline-8-carbohydrazide], in test [1], the EC50 is under 1 nM and the “EC50 selectivity (SDMA assay)” value turned out to be 261. In test [2], the CC50 is under 100 nM.

In general, EC50 refers to the concentration needed to bring the measured effect to its halfway point. A word on the CC50: it is the concentration that lowers cell viability or growth by half. Read a high CC50 as better tolerance by the cells.
